#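 Grown in 96-well plates, cells were treated for 48 hours with each compound at five concentrations. Insufficient inhibition: endpoint recorded as highest concentration tested. GI50 is the concentration that inhibits growth by half.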 The source made the active and inactive calls. Rule as the data show it: active = GI50 up to about 1.1 µM and inactive = higher.
# Tests used:
# Assay in all cases: NCI anticancer screen, dose series, 48 h
# [1] = test system: HCT-116
# [2] = test system: 786-0
# [3] = test system: SW-620
# [4] = test system: SK-MEL-5
# [5] = test system: SF-295
# [6] = test system: MDA-MB-435
# [7] = test system: SF-539
# [8] = test system: SK-MEL-2
# [9] = test system: OVCAR-4
# [10] = test system: CAKI-1
# [11] = test system: TK-10
# [12] = test system: T47D
# [13] = test system: OVCAR-3
# [14] = test system: NCI-H226
# [15] = test system: OVCAR-5
# [16] = test system: HCT-15
# [17] = test system: EKVX
# [18] = test system: ACHN
# [19] = test system: A498
# [20] = test system: COLO 205
SMILES,GI50 [1],GI50 [2],GI50 [3],GI50 [4],GI50 [5],GI50 [6],GI50 [7],GI50 [8],GI50 [9],GI50 [10],GI50 [11],GI50 [12],GI50 [13],GI50 [14],GI50 [15],GI50 [16] [µM],GI50 [17],GI50 [18],GI50 [19],GI50 [20]
NCc1nnn(Cc2ccccc2)c1N,> 100 µM (inactive),> 100 µM (inactive),> 100 µM (inactive),> 100 µM (inactive),> 100 µM (inactive),> 100 µM (inactive),> 100 µM (inactive),> 100 µM (inactive),> 100 µM (inactive),> 100 µM (inactive),> 100 µM (inactive),> 100 µM (inactive),> 100 µM (inactive),> 100 µM (inactive),> 100 µM (inactive),> 100,> 100 µM (inactive),> 100 µM (inactive),> 100 µM (inactive),> 100 µM (inactive)
Cc1ccccc1NC(=S)N/N=C1\C(=O)Nc2ccccc21,> 100 µM (inactive),> 100 µM (inactive),> 100 µM (inactive),> 100 µM (inactive),> 100 µM (inactive),> 100 µM (inactive),> 100 µM (inactive),> 100 µM (inactive),> 100 µM (inactive),> 100 µM (inactive),> 100 µM (inactive),> 100 µM (inactive),> 100 µM (inactive),> 100 µM (inactive),> 100 µM (inactive),> 100,> 100 µM (inactive),> 100 µM (inactive),86.3 µM (inactive),> 100 µM (inactive)
N#CI1OC(C(F)(F)F)(C(F)(F)F)c2ccccc21,16.4 µM (inactive),14.2 µM (inactive),> 10 µM (inactive),17.5 µM (inactive),45.9 µM (inactive),17.8 µM (inactive),19.9 µM (inactive),16.1 µM (inactive),15.1 µM (inactive),14.1 µM (inactive),19 µM (inactive),18.1 µM (inactive),15.7 µM (inactive),17.8 µM (inactive),19.2 µM (inactive),15.1,14.6 µM (inactive),18.2 µM (inactive),37.4 µM (inactive),12.9 µM (inactive)
O=[N+]([O-])c1ccc(Cl)c(/C=N/C23CC4CC(CC(C4)C2)C3)c1,1.2 µM (inactive),> 7.66 µM (inactive),> 10 µM (inactive),3.5 µM (inactive),> 10 µM (inactive),> 6.34 µM (inactive),5.33 µM (inactive),> 10 µM (inactive),> 10 µM (inactive),> 10 µM (inactive),> 10 µM (inactive),> 10 µM (inactive),> 9.48 µM (inactive),> 10 µM (inactive),> 10 µM (inactive),> 6.46,> 10 µM (inactive),> 10 µM (inactive),> 10 µM (inactive),> 10 µM (inactive)
Nn1c(Cc2ccc(Cl)cc2)n[nH]c1=O,> 100 µM (inactive),> 100 µM (inactive),> 100 µM (inactive),> 100 µM (inactive),> 100 µM (inactive),> 100 µM (inactive),> 100 µM (inactive),> 100 µM (inactive),> 100 µM (inactive),50.5 µM (inactive),> 100 µM (inactive),> 100 µM (inactive),> 100 µM (inactive),> 100 µM (inactive),> 100 µM (inactive),> 100,> 100 µM (inactive),> 100 µM (inactive),> 100 µM (inactive),> 100 µM (inactive)
CSc1ccc2c(c1)c(CCN)c(C)n2Cc1ccccc1Cl,1.63 µM (inactive),1.72 µM (inactive),1.78 µM (inactive),1.72 µM (inactive),1.82 µM (inactive),1.67 µM (inactive),1.37 µM (inactive),1.8 µM (inactive),1.73 µM (inactive),1.95 µM (inactive),1.73 µM (inactive),1.57 µM (inactive),1.86 µM (inactive),1.66 µM (inactive),1.85 µM (inactive),2.02,1.62 µM (inactive),1.69 µM (inactive),1.71 µM (inactive),1.67 µM (inactive)

# — ChEMBL document CHEMBL1201862, “PubChem BioAssay data set” (2004)
